Values after ≈ are worked out from the molar mass of the structure shown. Where two headings read alike, the source gives them in different places.
Tests used:
[1] = tested on: M. suipneumoniae PW/C/210; assay: Anti-mycoplasmal activity, MIC in Friis broth agarose; type: cell-based; conditions: Friis broth solidified with 0.9% agarose, 6 days incubation at 37°C
[2] = tested on: Strep. suis (group D) SPS11; assay: Veterinary bacteria, MIC by two fold serial dilution in agar
Description: (§1) The activity of the compounds of the Examples against various organisms important in veterinary infections was determined using two fold serial dilutions in Diagnostic Sensitivity Test Agar inoculated with 10^4 organisms.

[3] = tested on: M. suipneumoniae ATCC 25095; assay: Anti-mycoplasmal activity, MIC in Friis broth agarose; type: cell-based; conditions: Friis broth solidified with 0.9% agarose, 6 days incubation at 37°C
[4] = tested on: M. bovigenitalium ATCC 14173; assay: as above; type: cell-based; conditions: Friis broth solidified with 0.9% agarose, 6 days incubation at 37°C
[5] = tested on: M. suipneumoniae J2206/183b; assay: as above; type: cell-based; conditions: Friis broth solidified with 0.9% agarose, 6 days incubation at 37°C
[6] = tested on: M. suipneumoniae LABER; assay: as above; type: cell-based; conditions: Friis broth solidified with 0.9% agarose, 6 days incubation at 37°C
[7] = tested on: E. coli NCTC 10418; assay: Human bacteria, MIC by serial dilution in nutrient agar; type: cell-based; conditions: E. coli NCTC 10418 (human panel), nutrient agar with 5% chocolated horse blood, 18 hours at 37°C
[8] = tested on: M. hyorhinis ATCC 25021; assay: Anti-mycoplasmal activity, MIC in Friis broth agarose; type: cell-based; conditions: Friis broth solidified with 0.9% agarose, 6 days incubation at 37°C
[9] = tested on: Staph. aureus W2827; assay: Human bacteria, MIC by serial dilution in nutrient agar; type: cell-based; conditions: nutrient agar with 5% chocolated horse blood, 18 hours at 37°C
[10] = tested on: Staph. aureus Oxford; assay: Veterinary bacteria, MIC by two fold serial dilution in agar
Description: as §1

[11] = tested on: S. typhimurium S18; assay: as above
Description: as §1

[12] = tested on: M. suipneumoniae NB12; assay: Anti-mycoplasmal activity, MIC in Friis broth agarose; type: cell-based; conditions: Friis broth solidified with 0.9% agarose, 6 days incubation at 37°C
[13] = tested on: Strep. agalactiae SPA1; assay: Veterinary bacteria, MIC by two fold serial dilution in agar
Description: as §1

[14] = tested on: Bord. bronchiseptica BO9; assay: as above
Description: as §1

[15] = tested on: Staph. aureus Oxford; assay: Human bacteria, MIC by serial dilution in nutrient agar; type: cell-based; conditions: Staph. aureus Oxford (human panel), nutrient agar with 5% chocolated horse blood, 18 hours at 37°C
[16] = tested on: M. suipneumoniae NCTC 10110; assay: Anti-mycoplasmal activity, MIC in Friis broth agarose; type: cell-based; conditions: Friis broth solidified with 0.9% agarose, 6 days incubation at 37°C
[17] = tested on: Past. haemolytica PA5; assay: Veterinary bacteria, MIC by two fold serial dilution in agar
Description: as §1

[18] = Strep. suis (group D) SPS11, Diagnostic Sensitivity Test Agar, 18 hours at 37°C
[19] = Staph. aureus Oxford (veterinary panel), Diagnostic Sensitivity Test Agar, 18 hours at 37°C
[20] = S. typhimurium S18, Diagnostic Sensitivity Test Agar, 18 hours at 37°C
[21] = Strep. agalactiae SPA1, Diagnostic Sensitivity Test Agar, 18 hours at 37°C
[22] = Bord. bronchiseptica BO9, Diagnostic Sensitivity Test Agar, 18 hours at 37°C
[23] = Past. haemolytica PA5, Diagnostic Sensitivity Test Agar, 18 hours at 37°C
[24] = Mesomycoplasma hyopneumoniae, 144 h, read-out: MIC
[25] = Mesomycoplasma hyopneumoniae, ATCC25095, 144 h, read-out: MIC
[26] = Escherichia coli, NCTC10418, read-out: MIC
[27] = Mesomycoplasma hyorhinis, ATCC25021, 144 h, read-out: MIC
[28] = Staphylococcus aureus, read-out: MIC
[29] = Salmonella enterica, TYPHIMURIUM, 18 h
[30] = Streptococcus agalactiae, SPA1, 18 h
[31] = Bordetella bronchiseptica, BO9, 18 h
[32] = Mesomycoplasma hyopneumoniae, NCTC10110, 144 h, read-out: MIC
[33] = Mannheimia haemolytica, PA5, 18 h

Compound	MIC [1, 24]	MIC ([2]; Streptococcus suis, 18 h)	MIC [3, 25]	MIC ([4]; 144 h, read-out: MIC)	MIC [5, 24]	MIC [6, 24]	MIC [7, 26]	MIC [8, 27]	MIC [9, 28]	MIC ([10]; Staphylococcus aureus, 18 h)	MIC [11, 29]	MIC [12, 24]	MIC [13, 30]	MIC [14, 31]	MIC [15, 28]	MIC [16, 32]	MIC [17, 33]	other results
1-(p-Methylsulfinylphenyl)ethyl monate A [Example 8]	–	–	–	–	–	–	–	–	–	–	–	–	–	–	–	–	–	MIC [1]: 1.0 µg/mL; MIC [2, 18]: 80 µg/mL; MIC [3]: 2.5 µg/mL; MIC [4]: 0.1 µg/mL; MIC [5]: 2.5 µg/mL; MIC [6]: 2.5 µg/mL; MIC [7]: >128 µg/mL; MIC [8]: 1.0 µg/mL; MIC [9]: 32 µg/mL; MIC [10, 19]: 20 µg/mL; MIC [11, 20]: >80 µg/mL; MIC [12]: 2.5 µg/mL; MIC [13, 21]: >80 µg/mL; MIC [14, 22]: >80 µg/mL; MIC [15]: 16 µg/mL; MIC [16]: 2.5 µg/mL; MIC [17, 23]: 80 µg/mL
CSc1ccc(COC(=O)C=C(C)CC2OCC(CC3OC3C(C)C(C)O)C(O)C2O)cc1 (stereo not drawn) [Example 1, p-Methylthiobenzyl monate A]	0.25 µg/mL (≈ 0.52 µM)	2.5 µg/mL (≈ 5.2 µM)	0.5 µg/mL (≈ 1.04 µM)	0.025 µg/mL (≈ 0.052 µM)	0.5 µg/mL (≈ 1.04 µM)	0.25 µg/mL (≈ 0.52 µM)	100 µg/mL (≈ 208 µM)	0.25 µg/mL (≈ 0.52 µM)	0.5 µg/mL (≈ 1.04 µM)	0.156 µg/mL (≈ 0.325 µM)	> 80 µg/mL	0.5 µg/mL (≈ 1.04 µM)	0.312 µg/mL (≈ 0.649 µM)	5 µg/mL (≈ 10.4 µM)	0.5 µg/mL (≈ 1.04 µM)	0.5 µg/mL (≈ 1.04 µM)	0.312 µg/mL (≈ 0.649 µM)	–
CC(=CC(=O)OCc1ccc([S+](C)[O-])cc1)CC1OCC(CC2OC2C(C)C(C)O)C(O)C1O (stereo not drawn) [Example 2, p- Methylsulphinylbenzyl monate A]	0.1 µg/mL (≈ 0.201 µM)	2.5 µg/mL (≈ 5.03 µM)	0.25 µg/mL (≈ 0.503 µM)	0.025 µg/mL (≈ 0.0503 µM)	0.25 µg/mL (≈ 0.503 µM)	0.25 µg/mL (≈ 0.503 µM)	> 100 µg/mL	0.1 µg/mL (≈ 0.201 µM)	2.5 µg/mL (≈ 5.03 µM)	1.25 µg/mL (≈ 2.52 µM)	> 80 µg/mL	0.25 µg/mL (≈ 0.503 µM)	0.625 µg/mL (≈ 1.26 µM)	5 µg/mL (≈ 10.1 µM)	2.5 µg/mL (≈ 5.03 µM)	0.25 µg/mL (≈ 0.503 µM)	5 µg/mL (≈ 10.1 µM)	–
CC(=CC(=O)OCc1ccc(S(C)(=O)=O)cc1)CC1OCC(CC2OC2C(C)C(C)O)C(O)C1O (stereo not drawn) [Example 3, p-Methylsulphonylbenzyl monate A]	0.1 µg/mL (≈ 0.195 µM)	2.5 µg/mL (≈ 4.88 µM)	0.1 µg/mL (≈ 0.195 µM)	≤ 0.01 µg/mL	0.25 µg/mL (≈ 0.488 µM)	0.1 µg/mL (≈ 0.195 µM)	100 µg/mL (≈ 195 µM)	0.05 µg/mL (≈ 0.0975 µM)	2.5 µg/mL (≈ 4.88 µM)	1.25 µg/mL (≈ 2.44 µM)	> 80 µg/mL	0.1 µg/mL (≈ 0.195 µM)	0.625 µg/mL (≈ 1.22 µM)	2.5 µg/mL (≈ 4.88 µM)	1 µg/mL (≈ 1.95 µM)	0.25 µg/mL (≈ 0.488 µM)	5 µg/mL (≈ 9.75 µM)	–
CC(=CC(=O)OCc1cccc([S+](C)[O-])c1)CC1OCC(CC2OC2C(C)C(C)O)C(O)C1O (stereo not drawn) [Example 6, m-Methylsulfinylbenzyl monate A]	5 µg/mL (≈ 10.1 µM)	> 80 µg/mL	5 µg/mL (≈ 10.1 µM)	0.25 µg/mL (≈ 0.503 µM)	10 µg/mL (≈ 20.1 µM)	5 µg/mL (≈ 10.1 µM)	> 100 µg/mL	5 µg/mL (≈ 10.1 µM)	12.5 µg/mL (≈ 25.2 µM)	5 µg/mL (≈ 10.1 µM)	> 80 µg/mL	5 µg/mL (≈ 10.1 µM)	20 µg/mL (≈ 40.3 µM)	> 80 µg/mL	2.5 µg/mL (≈ 5.03 µM)	10 µg/mL (≈ 20.1 µM)	80 µg/mL (≈ 161 µM)	–
CC(=CC(=O)OCc1cccc(S(C)(=O)=O)c1)CC1OCC(CC2OC2C(C)C(C)O)C(O)C1O (stereo not drawn) [Example 7, m-Methylsulfonylbenzyl monate A]	0.5 µg/mL (≈ 0.975 µM)	20 µg/mL (≈ 39 µM)	0.5 µg/mL (≈ 0.975 µM)	0.05 µg/mL (≈ 0.0975 µM)	1 µg/mL (≈ 1.95 µM)	0.5 µg/mL (≈ 0.975 µM)	> 100 µg/mL	0.5 µg/mL (≈ 0.975 µM)	5 µg/mL (≈ 9.75 µM)	2.5 µg/mL (≈ 4.88 µM)	> 80 µg/mL	0.5 µg/mL (≈ 0.975 µM)	2.5 µg/mL (≈ 4.88 µM)	20 µg/mL (≈ 39 µM)	2.5 µg/mL (≈ 4.88 µM)	1 µg/mL (≈ 1.95 µM)	10 µg/mL (≈ 19.5 µM)	–
CC(=CC(=O)OC(C)c1ccc(S(C)(=O)=O)cc1)CC1OCC(CC2OC2C(C)C(C)O)C(O)C1O (stereo not drawn) [Example 9, 1-(p-Methylsulfonylphenyl)ethyl monate A]	–	40 µg/mL (≈ 76 µM)	0.5 µg/mL (≈ 0.949 µM)	0.05 µg/mL (≈ 0.0949 µM)	1 µg/mL (≈ 1.9 µM)	0.5 µg/mL (≈ 0.949 µM)	> 128 µg/mL	0.5 µg/mL (≈ 0.949 µM)	16 µg/mL (≈ 30.4 µM)	10 µg/mL (≈ 19 µM)	> 80 µg/mL	1 µg/mL (≈ 1.9 µM)	80 µg/mL (≈ 152 µM)	80 µg/mL (≈ 152 µM)	4 µg/mL (≈ 7.6 µM)	1 µg/mL (≈ 1.9 µM)	40 µg/mL (≈ 76 µM)	–
m-Methylthiobenzyl monate A [Example 5]	–	–	–	–	–	–	–	–	–	–	–	–	–	–	–	–	–	MIC [1]: 0.25 µg/mL; MIC [2, 18]: 1.25 µg/mL; MIC [3]: 0.5 µg/mL; MIC [4]: 0.025 µg/mL; MIC [5]: 0.5 µg/mL; MIC [6]: 0.25 µg/mL; MIC [7]: >100 µg/mL; MIC [8]: 0.25 µg/mL; MIC [9]: 0.5 µg/mL; MIC [10, 19]: .156 µg/mL; MIC [11, 20]: >80 µg/mL; MIC [12]: 0.5 µg/mL; MIC [13, 21]: .312 µg/mL; MIC [14, 22]: 2.5 µg/mL; MIC [15]: 0.5 µg/mL; MIC [16]: 0.5 µg/mL; MIC [17, 23]: 10 µg/mL
